The experiment has as its target RBD^N501Y binding to ACE2 (Severe acute respiratory syndrome coronavirus 2, UniProt P0DTC2, N501Y). The arrangement: species or system SARS-CoV-2.

Results on two compounds are retold here after patent publication US20230172885A1, “THIOL-CONTAINING COMPOUNDS FOR USE IN TREATING CORONAVIRUS” (priority 2020, published 2023).

Take `NCCS` [Cysteamine]: the “inhibition of binding of RBD^N501Y to ACE2” value is “potently inhibited”.
`O[C@@H]1[C@@H](O)[C@@H](O[C@H]2O[C@H](CS)[C@@H](O)[C@H](O)[C@H]2O)O[C@H](CS)[C@H]1O` [MUC-31, 6,6′-dithiotrehalose]: the “inhibition of binding of RBD^N501Y to ACE2” value is recorded as “potently inhibited”.
